{"source": "patent US20110081429A1", "about": "“COMPOSITION FOR EXTERNAL USE” (priority 2008, published 2011)", "test_system": "IGF-1 secretion in the skin", "assay": "IGF-1 concentration in the skin after application of essential oil and/or AMP (Experimental Example 1)", "format": "in vivo, hairless mice (Hos: HR-1)", "details": "hairless mice, 400 μl on back skin (3 cm×5 cm), 30 minutes after the application; FIG. 1a-1c", "experimental": "In order to examine how the effect of essential oils on the amount of IGF-1 secretion in the skin is affected by AMP, the following compositions containing an essential oil and AMP (Examples 1 to 3 and Comparative Examples 1 to 5) were prepared by a standard method. The pH of each composition was adjusted with NaOH such that the pH ranged from 6.5 to 7.0.\n400 μl of a test solution was applied to the skin on the back (3 cm×5 cm) of hairless mice (Hos: HR-1, Japan SLC, Inc., female, 6 to 8 weeks age). 30 minutes after the application, the skin was extracted and frozen-crushed. Then, the IGF-1 concentration in the skin was measured using Quantikine (registered trademark) Mouse IGF-1 Immunoassay (R&D Systems, Inc.).\nThe composition shown in Table 1 was used as a test solution.\nThe secreted IGF-1 concentration was measured according to the method described in Experiment 1-1. The composition shown in Table 1 above was used as a test solution.", "note": "“Also recorded” adds a separate entry of the source."}
{"compound": "Nc1ncnc2c1ncn2[C@@H]1O[C@H](COP(=O)(O)O)[C@@H](O)[C@H]1O", "note": "[AMP, adenosine-5′-monophosphate]", "values": [{"measurement": "stimulatory effect on IGF-1 secretion (IGF-1 concentration in the skin)", "result": "did not produce a stimulatory effect on IGF-1 secretion when used alone; also recorded: neither AMP or Scotch pine needle oil stimulated IGF-1 secretion when used alone; also recorded: did not produce a sufficient stimulatory effect on IGF-1 secretion"}]}
